The source of these data is the OligoGym collection.

Oligonucleotides are given in HELM: sugar(base)linkage, 5' to 3'; d 2'-deoxyribose, r ribose, m 2'-O-methylribose, p phosphate. ss, as = sense and antisense strand

In the series the target is TMEM63B. Nature of the series: reporter assay of Huesken 2005. The settings on record: siRNA.
Further: test concentration or dose not given here.

In turn, “RNA1{r(C)p.r(G)p.r(C)p.r(U)p.r(A)p.r(C)p.r(A)p.r(A)p.r(G)p.r(G)p.r(A)p.r(G)p.r(G)p.r(A)p.r(U)p.r(G)p.r(A)p.r(U)p.r(C)p.d(T)p.d(T)}|RNA2{r(G)p.r(A)p.r(U)p.r(C)p.r(A)p.r(U)p.r(C)p.r(C)p.r(U)p.r(C)p.r(C)p.r(U)p.r(U)p.r(G)p.r(U)p.r(A)p.r(G)p.r(C)p.r(G)p.d(C)p.d(A)}$$$RNA1{StrandType:ss}|RNA2{StrandType:as}$” returned a normalised inhibition (eCFP-eYFP dual reporter) of 79.3%.

Take “RNA1{r(U)p.r(U)p.r(U)p.r(A)p.r(U)p.r(C)p.r(G)p.r(G)p.r(C)p.r(A)p.r(A)p.r(C)p.r(G)p.r(C)p.r(C)p.r(A)p.r(U)p.r(G)p.r(G)p.d(T)p.d(T)}|RNA2{r(C)p.r(C)p.r(A)p.r(U)p.r(G)p.r(G)p.r(C)p.r(G)p.r(U)p.r(U)p.r(G)p.r(C)p.r(C)p.r(G)p.r(A)p.r(U)p.r(A)p.r(A)p.r(A)p.d(G)p.d(G)}$$$RNA1{StrandType:ss}|RNA2{StrandType:as}$”: the normalised inhibition (eCFP-eYFP dual reporter) came out at 36.7%.

“RNA1{r(A)p.r(A)p.r(G)p.r(G)p.r(A)p.r(G)p.r(A)p.r(A)p.r(C)p.r(G)p.r(U)p.r(G)p.r(C)p.r(C)p.r(U)p.r(A)p.r(C)p.r(C)p.r(A)p.d(T)p.d(T)}|RNA2{r(U)p.r(G)p.r(G)p.r(U)p.r(A)p.r(G)p.r(G)p.r(C)p.r(A)p.r(C)p.r(G)p.r(U)p.r(U)p.r(C)p.r(U)p.r(C)p.r(C)p.r(U)p.r(U)p.d(G)p.d(C)}$$$RNA1{StrandType:ss}|RNA2{StrandType:as}$” showed a normalised inhibition (eCFP-eYFP dual reporter) of 70.2%.

The substance “RNA1{r(C)p.r(G)p.r(U)p.r(G)p.r(U)p.r(G)p.r(U)p.r(A)p.r(A)p.r(A)p.r(U)p.r(G)p.r(C)p.r(C)p.r(A)p.r(G)p.r(G)p.r(G)p.r(C)p.d(T)p.d(T)}|RNA2{r(G)p.r(C)p.r(C)p.r(C)p.r(U)p.r(G)p.r(G)p.r(C)p.r(A)p.r(U)p.r(U)p.r(U)p.r(A)p.r(C)p.r(A)p.r(C)p.r(A)p.r(C)p.r(G)p.d(T)p.d(T)}$$$RNA1{StrandType:ss}|RNA2{StrandType:as}$” displayed a normalised inhibition (eCFP-eYFP dual reporter) of 52.1%.

Take “RNA1{r(A)p.r(U)p.r(C)p.r(C)p.r(U)p.r(C)p.r(A)p.r(U)p.r(C)p.r(C)p.r(C)p.r(A)p.r(A)p.r(G)p.r(A)p.r(U)p.r(G)p.r(A)p.r(G)p.d(T)p.d(T)}|RNA2{r(C)p.r(U)p.r(C)p.r(A)p.r(U)p.r(C)p.r(U)p.r(U)p.r(G)p.r(G)p.r(G)p.r(A)p.r(U)p.r(G)p.r(A)p.r(G)p.r(G)p.r(A)p.r(U)p.d(G)p.d(A)}$$$RNA1{StrandType:ss}|RNA2{StrandType:as}$”: the normalised inhibition (eCFP-eYFP dual reporter) turned out to be 53.8%.

Turning to “RNA1{r(C)p.r(U)p.r(C)p.r(A)p.r(C)p.r(G)p.r(G)p.r(A)p.r(C)p.r(A)p.r(C)p.r(A)p.r(G)p.r(A)p.r(C)p.r(U)p.r(U)p.r(C)p.r(C)p.d(T)p.d(T)}|RNA2{r(G)p.r(G)p.r(A)p.r(A)p.r(G)p.r(U)p.r(C)p.r(U)p.r(G)p.r(U)p.r(G)p.r(U)p.r(C)p.r(C)p.r(G)p.r(U)p.r(G)p.r(A)p.r(G)p.d(G)p.d(G)}$$$RNA1{StrandType:ss}|RNA2{StrandType:as}$”, the normalised inhibition (eCFP-eYFP dual reporter) came to 61.7%.

As for “RNA1{r(U)p.r(C)p.r(U)p.r(G)p.r(U)p.r(C)p.r(U)p.r(C)p.r(U)p.r(G)p.r(C)p.r(C)p.r(A)p.r(C)p.r(G)p.r(U)p.r(C)p.r(U)p.r(G)p.d(T)p.d(T)}|RNA2{r(C)p.r(A)p.r(G)p.r(A)p.r(C)p.r(G)p.r(U)p.r(G)p.r(G)p.r(C)p.r(A)p.r(G)p.r(A)p.r(G)p.r(A)p.r(C)p.r(A)p.r(G)p.r(A)p.d(T)p.d(G)}$$$RNA1{StrandType:ss}|RNA2{StrandType:as}$”, the normalised inhibition (eCFP-eYFP dual reporter) was 68.3%.

In turn, “RNA1{r(G)p.r(C)p.r(A)p.r(A)p.r(C)p.r(G)p.r(C)p.r(C)p.r(A)p.r(U)p.r(G)p.r(G)p.r(A)p.r(C)p.r(C)p.r(U)p.r(G)p.r(C)p.r(U)p.d(T)p.d(T)}|RNA2{r(A)p.r(G)p.r(C)p.r(A)p.r(G)p.r(G)p.r(U)p.r(C)p.r(C)p.r(A)p.r(U)p.r(G)p.r(G)p.r(C)p.r(G)p.r(U)p.r(U)p.r(G)p.r(C)p.d(C)p.d(G)}$$$RNA1{StrandType:ss}|RNA2{StrandType:as}$” displayed a normalised inhibition (eCFP-eYFP dual reporter) of 71.1%.

Substance “RNA1{r(U)p.r(C)p.r(G)p.r(U)p.r(C)p.r(C)p.r(U)p.r(C)p.r(U)p.r(U)p.r(C)p.r(A)p.r(U)p.r(C)p.r(C)p.r(U)p.r(C)p.r(C)p.r(U)p.d(T)p.d(T)}|RNA2{r(A)p.r(G)p.r(G)p.r(A)p.r(G)p.r(G)p.r(A)p.r(U)p.r(G)p.r(A)p.r(A)p.r(G)p.r(A)p.r(G)p.r(G)p.r(A)p.r(C)p.r(G)p.r(A)p.d(C)p.d(A)}$$$RNA1{StrandType:ss}|RNA2{StrandType:as}$” returned a normalised inhibition (eCFP-eYFP dual reporter) of 55.8%.

“RNA1{r(C)p.r(A)p.r(G)p.r(G)p.r(A)p.r(C)p.r(A)p.r(A)p.r(C)p.r(C)p.r(A)p.r(U)p.r(G)p.r(C)p.r(A)p.r(C)p.r(A)p.r(A)p.r(G)p.d(T)p.d(T)}|RNA2{r(C)p.r(U)p.r(U)p.r(G)p.r(U)p.r(G)p.r(C)p.r(A)p.r(U)p.r(G)p.r(G)p.r(U)p.r(U)p.r(G)p.r(U)p.r(C)p.r(C)p.r(U)p.r(G)p.d(T)p.d(T)}$$$RNA1{StrandType:ss}|RNA2{StrandType:as}$”: the normalised inhibition (eCFP-eYFP dual reporter) is 61.5%.

“RNA1{r(C)p.r(A)p.r(C)p.r(U)p.r(U)p.r(C)p.r(A)p.r(A)p.r(A)p.r(U)p.r(A)p.r(C)p.r(C)p.r(U)p.r(C)p.r(A)p.r(G)p.r(U)p.r(G)p.d(T)p.d(T)}|RNA2{r(C)p.r(A)p.r(C)p.r(U)p.r(G)p.r(A)p.r(G)p.r(G)p.r(U)p.r(A)p.r(U)p.r(U)p.r(U)p.r(G)p.r(A)p.r(A)p.r(G)p.r(U)p.r(G)p.d(T)p.d(C)}$$$RNA1{StrandType:ss}|RNA2{StrandType:as}$”: the normalised inhibition (eCFP-eYFP dual reporter) was 55%.

As to “RNA1{r(U)p.r(G)p.r(C)p.r(C)p.r(G)p.r(U)p.r(G)p.r(G)p.r(G)p.r(G)p.r(A)p.r(G)p.r(C)p.r(C)p.r(A)p.r(C)p.r(G)p.r(C)p.r(C)p.d(T)p.d(T)}|RNA2{r(G)p.r(G)p.r(C)p.r(G)p.r(U)p.r(G)p.r(G)p.r(C)p.r(U)p.r(C)p.r(C)p.r(C)p.r(C)p.r(A)p.r(C)p.r(G)p.r(G)p.r(C)p.r(A)p.d(G)p.d(G)}$$$RNA1{StrandType:ss}|RNA2{StrandType:as}$”, the normalised inhibition (eCFP-eYFP dual reporter) was found to be 62.7%.

The substance “RNA1{r(C)p.r(C)p.r(A)p.r(C)p.r(U)p.r(C)p.r(C)p.r(A)p.r(G)p.r(C)p.r(C)p.r(A)p.r(U)p.r(C)p.r(A)p.r(U)p.r(C)p.r(A)p.r(U)p.d(T)p.d(T)}|RNA2{r(A)p.r(U)p.r(G)p.r(A)p.r(U)p.r(G)p.r(A)p.r(U)p.r(G)p.r(G)p.r(C)p.r(U)p.r(G)p.r(G)p.r(A)p.r(G)p.r(U)p.r(G)p.r(G)p.d(T)p.d(G)}$$$RNA1{StrandType:ss}|RNA2{StrandType:as}$” displayed a normalised inhibition (eCFP-eYFP dual reporter) of 77.4%.

“RNA1{r(C)p.r(A)p.r(G)p.r(C)p.r(C)p.r(A)p.r(U)p.r(C)p.r(A)p.r(U)p.r(C)p.r(A)p.r(U)p.r(C)p.r(A)p.r(C)p.r(C)p.r(A)p.r(C)p.d(T)p.d(T)}|RNA2{r(G)p.r(U)p.r(G)p.r(G)p.r(U)p.r(G)p.r(A)p.r(U)p.r(G)p.r(A)p.r(U)p.r(G)p.r(A)p.r(U)p.r(G)p.r(G)p.r(C)p.r(U)p.r(G)p.d(G)p.d(A)}$$$RNA1{StrandType:ss}|RNA2{StrandType:as}$”: the normalised inhibition (eCFP-eYFP dual reporter) came to 74.3%.

In turn, “RNA1{r(G)p.r(U)p.r(A)p.r(C)p.r(A)p.r(U)p.r(G)p.r(A)p.r(U)p.r(C)p.r(C)p.r(G)p.r(G)p.r(C)p.r(U)p.r(C)p.r(U)p.r(G)p.r(C)p.d(T)p.d(T)}|RNA2{r(G)p.r(C)p.r(A)p.r(G)p.r(A)p.r(G)p.r(C)p.r(C)p.r(G)p.r(G)p.r(A)p.r(U)p.r(C)p.r(A)p.r(U)p.r(G)p.r(U)p.r(A)p.r(C)p.d(A)p.d(T)}$$$RNA1{StrandType:ss}|RNA2{StrandType:as}$” showed a normalised inhibition (eCFP-eYFP dual reporter) of 46.8%.

Turning to “RNA1{r(G)p.r(A)p.r(C)p.r(U)p.r(U)p.r(U)p.r(G)p.r(A)p.r(C)p.r(C)p.r(A)p.r(A)p.r(A)p.r(G)p.r(G)p.r(G)p.r(A)p.r(C)p.r(A)p.d(T)p.d(T)}|RNA2{r(U)p.r(G)p.r(U)p.r(C)p.r(C)p.r(C)p.r(U)p.r(U)p.r(U)p.r(G)p.r(G)p.r(U)p.r(C)p.r(A)p.r(A)p.r(A)p.r(G)p.r(U)p.r(C)p.d(A)p.d(A)}$$$RNA1{StrandType:ss}|RNA2{StrandType:as}$”, the normalised inhibition (eCFP-eYFP dual reporter) was 89.5%.

With “RNA1{r(G)p.r(C)p.r(C)p.r(U)p.r(A)p.r(C)p.r(G)p.r(C)p.r(C)p.r(U)p.r(G)p.r(G)p.r(A)p.r(U)p.r(G)p.r(A)p.r(U)p.r(G)p.r(U)p.d(T)p.d(T)}|RNA2{r(A)p.r(C)p.r(A)p.r(U)p.r(C)p.r(A)p.r(U)p.r(C)p.r(C)p.r(A)p.r(G)p.r(G)p.r(C)p.r(G)p.r(U)p.r(A)p.r(G)p.r(G)p.r(C)p.d(T)p.d(G)}$$$RNA1{StrandType:ss}|RNA2{StrandType:as}$”, the normalised inhibition (eCFP-eYFP dual reporter) was 72.3%.

The substance “RNA1{r(C)p.r(U)p.r(G)p.r(C)p.r(U)p.r(G)p.r(A)p.r(A)p.r(G)p.r(C)p.r(A)p.r(C)p.r(C)p.r(U)p.r(G)p.r(G)p.r(U)p.r(A)p.r(G)p.d(T)p.d(T)}|RNA2{r(C)p.r(U)p.r(A)p.r(C)p.r(C)p.r(A)p.r(G)p.r(G)p.r(U)p.r(G)p.r(C)p.r(U)p.r(U)p.r(C)p.r(A)p.r(G)p.r(C)p.r(A)p.r(G)p.d(C)p.d(A)}$$$RNA1{StrandType:ss}|RNA2{StrandType:as}$” came in with a normalised inhibition (eCFP-eYFP dual reporter) of 75%.

“RNA1{r(G)p.r(U)p.r(G)p.r(G)p.r(U)p.r(G)p.r(G)p.r(C)p.r(C)p.r(G)p.r(C)p.r(G)p.r(C)p.r(C)p.r(C)p.r(A)p.r(U)p.r(C)p.r(C)p.d(T)p.d(T)}|RNA2{r(G)p.r(G)p.r(A)p.r(U)p.r(G)p.r(G)p.r(G)p.r(C)p.r(G)p.r(C)p.r(G)p.r(G)p.r(C)p.r(C)p.r(A)p.r(C)p.r(C)p.r(A)p.r(C)p.d(C)p.d(T)}$$$RNA1{StrandType:ss}|RNA2{StrandType:as}$” returned a normalised inhibition (eCFP-eYFP dual reporter) of 46.3%.

“RNA1{r(A)p.r(G)p.r(C)p.r(U)p.r(C)p.r(A)p.r(G)p.r(G)p.r(G)p.r(G)p.r(A)p.r(U)p.r(G)p.r(A)p.r(G)p.r(C)p.r(C)p.r(C)p.r(C)p.d(T)p.d(T)}|RNA2{r(G)p.r(G)p.r(G)p.r(G)p.r(C)p.r(U)p.r(C)p.r(A)p.r(U)p.r(C)p.r(C)p.r(C)p.r(C)p.r(U)p.r(G)p.r(A)p.r(G)p.r(C)p.r(U)p.d(C)p.d(C)}$$$RNA1{StrandType:ss}|RNA2{StrandType:as}$”: the normalised inhibition (eCFP-eYFP dual reporter) worked out at 43%.
